Results on 13 compounds are retold here after article PMC10302047, “Structure–Activity Relationship Studies of Indolglyoxyl-Polyamine Conjugates as Antimicrobials and Antibiotic Potentiators” (Pharmaceuticals, 2023).

Data set [1] has as its system human red blood cells. Put plainly: Hemolytic assay. The note with it: mean (n = 2). The class given is cell-based. As for the experimental part: Hemolysis assays were conducted according to previously reported protocols.
In data set [2] the test system is S. aureus ATCC 25923. As to the kind of experiment: Antimicrobial susceptibility (MIC), S. aureus. The class given is cell-based, Staphylococcus aureus. The note with it: Staphylococcus aureus, ATCC25923; S. aureus ATCC 25923; mean (n = 3). The procedure: (§1) The susceptibility of bacterial strains S. aureus (ATCC 25923), E. coli (ATCC 25922) and P. aeruginosa (ATCC 27853) to antibiotics and compounds was determined according to previously reported protocols. Additional antimicrobial evaluation against MRSA (ATCC 43300) and C. albicans (ATCC 90028) was undertaken at the Community for Open Antimicrobial Drug Discovery at The University of Queensland (Australia) according to their standard protocols as reported previously.

For data set [3], the system named is P. aeruginosa ATCC 27853. As to the kind of experiment: Antimicrobial susceptibility (MIC), P. aeruginosa. Format: cell-based. The note with it: Pseudomonas aeruginosa, ATCC27853, mean (n = 3), read-out: MIC P. a. The procedure: as §1
For data set [4], the system named is C. albicans ATCC 90028. Put plainly: Antifungal susceptibility (MIC), C. albicans. The class given is cell-based. The note with it: Candida albicans, ATCC90028, mean (n = 2). The procedure:
as §1

Data set [5] in a line: Cytotoxicity assay HEK293. The class given is cell-based, human. The note with it: human, HEK293 cells, mean (n = 2), read-out: Cyto. IC50 (concentration of compound at 50% cytotoxicity). The procedure: Cytotoxicity assays were conducted according to previously reported protocols.
For data set [6], the system named is P. aeruginosa ATCC 27853. As to the kind of experiment: Antibiotic potentiation (MIC of antibiotics in the presence of synergizing compounds), P. aeruginosa. The class given is cell-based, Pseudomonas aeruginosa. The note with it: concentration required to restore doxycycline activity at 2 µg/mL (4.5 µM) against P. aeruginosa ATCC 27853.
The subject of data set [7] is MRSA ATCC 43300. As to the kind of experiment: Antimicrobial susceptibility (MIC), MRSA. The class given is cell-based. The following applies: Staphylococcus aureus; MRSA ATCC 43300; mean (n = 2); read-out: MIC MRSA. As for the experimental part:
as §1

Data set [8] deals with E. coli ATCC 25922. Put plainly: Antimicrobial susceptibility (MIC), E. coli. Format: cell-based. The following applies: Escherichia coli, ATCC25922, mean (n = 3). As for the experimental part:
as §1

Values after ≈ are worked out from the molar mass of the structure shown.

As usually defined, the MIC is the least concentration at which growth counts as inhibited.

In the case of `COc1cccc2c(C(=O)C(=O)NCCCNCCCCCCCCCCNCCCNC(=O)C(=O)c3c[nH]c4c(OC)cccc34)c[nH]c12.O=C(O)C(F)(F)F.O=C(O)C(F)(F)F` [Compound 22d, N^1,N^10-Bis(3-(2-(7-methoxy-1H-indol-3-yl)-2-oxoacetamido)propyl)decane-1,10-diaminium 2,2,2-trifluoroacetate], the “Hem. HC10 (concentration of compound at 10% hemolytic activity)” value in data set [1] was determined as 8.4 µM. Moreover, the minimum inhibitory concentration (MIC) in data set [2] is 25 µM; in data set [3] it was 800 µM; in data set [4] it was 17 µM; in data set [7], not above 0.27 µM; in data set [8], 50 µM. The IC50 in data set [5] was more than 35 µM. Further, in data set [6], the “Conc (µM) for Potentiation of doxycycline” value (“Conc (µM) for Potentiation” below) was determined as 400 µM.
As to `Cc1cccc2c(C(=O)C(=O)NCCCNCCCCCCCCCCCCNCCCNC(=O)C(=O)c3c[nH]c4c(C)cccc34)c[nH]c12.O=C(O)C(F)(F)F.O=C(O)C(F)(F)F` [Compound 23e, N^1,N^12-Bis(3-(2-(7-methyl-1H-indol-3-yl)-2-oxoacetamido)propyl)dodecane-1,12-diaminium 2,2,2-trifluoroacetate], the “Hem. HC10 (concentration of compound at 10% hemolytic activity)” value in data set [1] came to 8.4 µM. Also, the MIC in data set [2] is 6.85 µM; in data set [3], more than 220 µM; in data set [4], not above 0.27 µM; in data set [7], not above 0.27 µM; in data set [8] it was 13.7 µM. Besides, the IC50 in data set [5] is more than 35 µM. In data set [6], the “Conc (µM) for Potentiation” value is given as 220 µM.
On to `O=C(NCCCNCCCCCCCCCCNCCCNC(=O)C(=O)c1c[nH]c2ccccc12)C(=O)c1c[nH]c2ccccc12.O=C(O)C(F)(F)F.O=C(O)C(F)(F)F` [Compound 17d, N^1,N^10-Bis(3-(2-(1H-indol-3-yl)-2-oxoacetamido)propyl)decane-1,10-diaminium 2,2,2-trifluoroacetate], for which the “Hem. HC10 (concentration of compound at 10% hemolytic activity)” value in data set [1] is more than 37 µM. In addition, the MIC is 14.6 µM in data set [2]; 117 µM in data set [3]; 37 µM in data set [4]; 18.7 µM in data set [7]; 117 µM in data set [8]. For the same compound, the IC50 in data set [5] turned out to be 4.9 µM. Moreover, the “Conc (µM) for Potentiation” value in data set [6] was 58 µM.
Turning to `O=C(NCCCNCCCCCCCCCCCCNCCCNC(=O)C(=O)c1c[nH]c2ccc(Br)cc12)C(=O)c1c[nH]c2ccc(Br)cc12.O=C(O)C(F)(F)F.O=C(O)C(F)(F)F` [Compound 18e, N^1,N^12-Bis(3-(2-(5-bromo-1H-indol-3-yl)-2-oxoacetamido)propyl)dodecane-1,12-diaminium 2,2,2-trifluoroacetate], the “Hem. HC10 (concentration of compound at 10% hemolytic activity)” value in data set [1] is given as 20 µM. Also, the minimal inhibitory concentration (MIC) in data set [2] came out at 5.99 µM; in data set [3] it was 96 µM; in data set [4] it was 31 µM; in data set [7], 3.84 µM; in data set [8], 24 µM. In data set [5], the IC50 came out at 8.6 µM. Besides, in data set [6], the “Conc (µM) for Potentiation” value was 24 µM.
Take `O=C(NCCCNCCCCCCCCCCCCNCCCNC(=O)C(=O)c1c[nH]c2ccccc12)C(=O)c1c[nH]c2ccccc12` [Compound 17e]: in data set [1], the “Hem. HC10 (concentration of compound at 10% hemolytic activity)” value was more than 36 µM. The minimum inhibitory concentration (MIC) in data set [2] was 25 µM (≈ 16.4 µg/mL); in data set [3], more than 200 µM; in data set [4], 36 µM (≈ 23.6 µg/mL); in data set [7], 9.04 µM (≈ 5.94 µg/mL); in data set [8], more than 200 µM. Also, the IC50 in data set [5] was 5.6 µM. In addition, the “Conc (µM) for Potentiation” value in data set [6] came out at 6.25 µM.
In the case of `O=C(NCCCNCCCCCCCCNCCCNC(=O)C(=O)c1c[nH]c2ccc(Br)cc12)C(=O)c1c[nH]c2ccc(Br)cc12.O=C(O)C(F)(F)F.O=C(O)C(F)(F)F` [Compound 18c, N^1,N^8-Bis(3-(2-(5-bromo-1H-indol-3-yl)-2-oxoacetamido)propyl)octane-1,8-diaminium 2,2,2-trifluoroacetate], the “Hem. HC10 (concentration of compound at 10% hemolytic activity)” value in data set [1] is more than 32 µM. Also, the MIC in data set [2] was 25 µM; in data set [3], more than 200 µM; in data set [4] it was 32 µM; in data set [7], 8.1 µM; in data set [8] it was more than 200 µM. In addition, the IC50 in data set [5] was 18 µM. Moreover, the “Conc (µM) for Potentiation” value in data set [6] was more than 200 µM.
Take `O=C(NCCCNCCCCCCNCCCNC(=O)C(=O)c1c[nH]c2ccc(Br)cc12)C(=O)c1c[nH]c2ccc(Br)cc12.O=C(O)C(F)(F)F.O=C(O)C(F)(F)F` [Compound 18a, N^1,N^6-Bis(3-(2-(5-bromo-1H-indol-3-yl)-2-oxoacetamido)propyl)hexane-1,6-diaminium 2,2,2-trifluoroacetate]: in data set [1], the “Hem. HC10 (concentration of compound at 10% hemolytic activity)” value is given as more than 33 µM. For the same compound, the MIC in data set [2] is 1.56 µM; in data set [3], 50 µM; in data set [4] it was 16.7 µM; in data set [7], 4.17 µM; in data set [8], 6.25 µM. In addition, the IC50 in data set [5] was determined as 8.9 µM. Also, in data set [6], the “Conc (µM) for Potentiation” value is listed as 6.5 µM.
In the case of `COc1ccc2[nH]cc(C(=O)C(=O)NCCCNCCCCCCCNCCCNC(=O)C(=O)c3c[nH]c4ccc(OC)cc34)c2c1.O=C(O)C(F)(F)F.O=C(O)C(F)(F)F` [Compound 19b, N^1,N^7-Bis(3-(2-(5-methoxy-1H-indol-3-yl)-2-oxoacetamido)propyl)heptane-1,7-diaminium 2,2,2-trifluoroacetate], the “Hem. HC10 (concentration of compound at 10% hemolytic activity)” value in data set [1] is more than 37 µM. For the same compound, the MIC was 57 µM in data set [2]; more than 200 µM in data set [3]; 37 µM in data set [4]; 37 µM in data set [7]; more than 200 µM in data set [8]. Besides, in data set [5], the IC50 is more than 37 µM. In addition, the “Conc (µM) for Potentiation” value in data set [6] stood at 114 µM.
On to `COc1cccc2c(C(=O)C(=O)NCCCNCCCCCCCNCCCNC(=O)C(=O)c3c[nH]c4c(OC)cccc34)c[nH]c12.O=C(O)C(F)(F)F.O=C(O)C(F)(F)F` [Compound 22b, N^1,N^7-Bis(3-(2-(7-methoxy-1H-indol-3-yl)-2-oxoacetamido)propyl)heptane-1,7-diaminium 2,2,2-trifluoroacetate], for which the “Hem. HC10 (concentration of compound at 10% hemolytic activity)” value in data set [1] is listed as more than 37 µM. The minimum inhibitory concentration (MIC) in data set [2] was 25 µM; in data set [3], 800 µM; in data set [4], more than 37 µM; in data set [7], more than 37 µM; in data set [8], 200 µM. Also, the IC50 in data set [5] was 8.9 µM. Also, in data set [6], the “Conc (µM) for Potentiation” value is on record as 100 µM.
As for `O=C(NCCCNCCCCCCCNCCCNC(=O)C(=O)c1c[nH]c2c(F)cccc12)C(=O)c1c[nH]c2c(F)cccc12.O=C(O)C(F)(F)F.O=C(O)C(F)(F)F` [Compound 21b, N^1,N^7-Bis(3-(2-(7-fluoro-1H-indol-3-yl)-2-oxoacetamido)propyl)heptane-1,7-diaminium 2,2,2-trifluoroacetate], the “Hem. HC10 (concentration of compound at 10% hemolytic activity)” value in data set [1] is listed as more than 38 µM. The MIC was 7.3 µM in data set [2]; more than 200 µM in data set [3]; 38 µM in data set [4]; 18.8 µM in data set [7]; more than 200 µM in data set [8]. The IC50 in data set [5] amounted to 11 µM. The “Conc (µM) for Potentiation” value in data set [6] is 7.3 µM.
As to `O=C(NCCCNCCCCCCCCNCCCNC(=O)C(=O)c1c[nH]c2ccccc12)C(=O)c1c[nH]c2ccccc12` [Compound 17c], the “Hem. HC10 (concentration of compound at 10% hemolytic activity)” value in data set [1] is more than 39 µM. In addition, the MIC in data set [2] is 25 µM (≈ 15 µg/mL); in data set [3] it was 100 µM (≈ 60.1 µg/mL); in data set [4], more than 39 µM; in data set [7], 39 µM (≈ 23.4 µg/mL); in data set [8] it was 12.5 µM (≈ 7.51 µg/mL). Further, the IC50 in data set [5] was 10 µM. For the same compound, the “Conc (µM) for Potentiation” value in data set [6] is listed as 50 µM.
`O=C(NCCCNCCCCCCCCNCCCNC(=O)C(=O)c1c[nH]c2c(F)cccc12)C(=O)c1c[nH]c2c(F)cccc12.O=C(O)C(F)(F)F.O=C(O)C(F)(F)F` [Compound 21c, N^1,N^8-Bis(3-(2-(7-fluoro-1H-indol-3-yl)-2-oxoacetamido)propyl)octane-1,8-diaminium 2,2,2-trifluoroacetate]: the “Hem. HC10 (concentration of compound at 10% hemolytic activity)” value in data set [1] is on record as more than 37 µM. For the same compound, the minimal inhibitory concentration (MIC) in data set [2] was 29 µM; in data set [3], more than 200 µM; in data set [4], more than 37 µM; in data set [7], 18.5 µM; in data set [8], more than 200 µM. In data set [5], the IC50 was determined as 9.2 µM. Further, the “Conc (µM) for Potentiation” value in data set [6] was 58 µM.
For the compound `Cc1cccc2c(C(=O)C(=O)NCCCNCCCCCCNCCCNC(=O)C(=O)c3c[nH]c4c(C)cccc34)c[nH]c12.O=C(O)C(F)(F)F.O=C(O)C(F)(F)F` [Compound 23a, N^1,N^6-Bis(3-(2-(7-methyl-1H-indol-3-yl)-2-oxoacetamido)propyl)hexane-1,6-diaminium 2,2,2-trifluoroacetate], the “Hem. HC10 (concentration of compound at 10% hemolytic activity)” value in data set [1] is reported as more than 39 µM. Also, the minimal inhibitory concentration (MIC) in data set [2] is 30.2 µM; in data set [3], more than 240 µM; in data set [4] it was more than 39 µM; in data set [7] it was not above 0.3 µM; in data set [8] it was 60 µM. Moreover, in data set [5], the IC50 is more than 39 µM. In data set [6], the “Conc (µM) for Potentiation” value was determined as 60 µM.
